Reference: patent US20080267942A1, “BENZAZEPIN-2(1H)-ONE DERIVATIVES” (Pfizer Limited, priority 2006, published 2008)
Where a name gives a salt, the structure may show the parent alone.

Experiments:
[1] = biological target: T1, porcine beta-2 adrenoceptor (Sus scrofa, UniProt Q28997); assay: cAMP assay in CHO cells transfected with the porcine beta-2 adrenoceptor (DiscoveRx Hit Hunter cAMP II); type: cell-based; conditions: CHO cells transfected with porcine beta-2 adrenoceptor, 30 minutes incubation with compound
T1 construct: expressed in transfected cells; host or cells: CHO cells
Procedure: (§1) CHO cells transfected with the bovine or porcine beta-2 adrenceptors were maintained in culture in DMEM/HAMS F12+10% FBS+2 mM glutamine+500 μg/ml geneticin (for the porcine receptor the medium was supplement with 1.5 mM HEPES) at 37° C. with a 5% CO2 atmosphere.
(§2) Cells were plated into 96 well viewplates in medium and incubated overnight at 37° C. with a 5% CO2 atmosphere. The cells were pre-incubated with 0.5 mM IBMX in PBS for 30 minutes prior to incubation with increasing concentrations of experimental compound (5×10^−12 to 10^−5M) for 30 minutes at 37° C. with a 5% CO2 atmosphere. At the end of the incubation time the compound was removed and the cells assayed for cAMP using the DiscoveRx Hit Hunter cAMP II™ assay kit.
(§3) Duplicate samples were run for each experimental compound and the data generated was analysed using EC50 analysis software in Graphpad Prism.

[2] = biological target: T2, bovine beta-2 adrenoceptor (Bos taurus, UniProt Q28044); assay: cAMP assay in CHO cells transfected with the bovine beta-2 adrenoceptor (DiscoveRx Hit Hunter cAMP II); type: cell-based; conditions: CHO cells transfected with bovine beta-2 adrenoceptor, 30 minutes incubation with compound
T2 construct: expressed in transfected cells; host or cells: CHO cells
Procedure: as §1, §2, §3

T2 sequence (Q28044 whole entry): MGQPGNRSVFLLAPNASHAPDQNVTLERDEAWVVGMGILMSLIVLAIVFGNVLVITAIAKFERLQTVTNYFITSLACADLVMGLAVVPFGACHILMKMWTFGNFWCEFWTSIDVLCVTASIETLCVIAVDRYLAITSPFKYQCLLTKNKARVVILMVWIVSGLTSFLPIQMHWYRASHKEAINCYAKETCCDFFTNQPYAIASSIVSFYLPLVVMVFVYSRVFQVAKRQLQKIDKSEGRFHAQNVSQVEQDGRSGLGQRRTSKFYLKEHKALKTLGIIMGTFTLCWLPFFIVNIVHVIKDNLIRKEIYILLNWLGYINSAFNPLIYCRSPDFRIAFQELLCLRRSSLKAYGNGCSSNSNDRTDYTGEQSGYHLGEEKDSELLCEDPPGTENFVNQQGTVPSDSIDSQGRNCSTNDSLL
T1 sequence (Q28997 whole entry): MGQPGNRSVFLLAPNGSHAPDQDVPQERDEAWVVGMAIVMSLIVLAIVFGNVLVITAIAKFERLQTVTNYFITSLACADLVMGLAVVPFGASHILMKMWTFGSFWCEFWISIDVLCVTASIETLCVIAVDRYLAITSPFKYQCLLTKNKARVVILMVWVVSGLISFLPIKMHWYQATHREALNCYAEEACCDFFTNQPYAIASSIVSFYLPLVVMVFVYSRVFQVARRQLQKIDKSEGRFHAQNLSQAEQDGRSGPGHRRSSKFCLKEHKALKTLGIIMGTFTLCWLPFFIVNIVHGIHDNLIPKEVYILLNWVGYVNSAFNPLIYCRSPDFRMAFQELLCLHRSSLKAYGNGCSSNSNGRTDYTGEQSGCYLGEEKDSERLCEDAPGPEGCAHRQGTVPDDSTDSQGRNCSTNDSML

Compound: C[C@@H](CCc1c[nH]c2ccccc12)N[C@@H]1CCn2c(=O)[nH]c3cccc(c32)[C@H]1O (racemic) [Example 4c, 7-Hydroxy-6-{[3-(1H-indol-3-yl)-1-methylpropyl]amino}-4,5,6,7-tetrahydroimidazo[4,5,1-jk][1]benzazepin-2(1H)-one]
- EC50 [1]: 0.143 µM
- EC50 [2]: 0.103 µM

Compound: CC(CCc1c[nH]c2ccc(F)cc12)N[C@@H]1CCn2c(=O)[nH]c3cccc(c32)[C@H]1O (mixture of isomers) [Example 5b, Hydrochloride salt of 6-{[3-[5-Fluoro-1H-indol-3-yl]-1-methylpropyl]amino}-7-hydroxy-4,5,6,7-tetrahydroimidazo[4,5,1-jk][1]benzazepin-2(1)-one]
- EC50 [1]: 0.0025 µM
- EC50 [2]: 0.0011 µM

Compound: CC(CCc1cccc(=O)[nH]1)N[C@@H]1CCn2c(=O)[nH]c3cccc(c32)[C@H]1O (mixture of isomers) [Example 7a, 7-Hydroxy-6-{[1-methyl-3-(6-oxo-1,6-dihydropyridin-2-yl)propyl]amino}-4,5,6,7-tetrahydroimidazo[4,5,1-jk][1]benzazepin-2(1H)-one]
- EC50 [1]: 0.0055 µM
- EC50 [2]: 0.0046 µM

Compound: CC(CC(C)(C)c1c[nH]c2ccccc12)N[C@@H]1CCn2c(=O)[nH]c3cccc(c32)[C@H]1O (mixture of isomers) [Example 8, 7-Hydroxy-6-{[3-(1H-indol-3-yl)-1,3-dimethylbutyl]amino}-4,5,6,7-tetrahydroimidazo[4,5,1-jk][1]benzazepin-2(1H)-one]
- EC50 [1]: 0.0061 µM
- EC50 [2]: 0.114 µM

Compound: CC(CCc1cn(C)c2ccccc12)N[C@@H]1CCn2c(=O)[nH]c3cccc(c32)[C@H]1O (mixture of isomers) [Example 14b, 7-Hydroxy-6-{[1-methyl-3-(1-methyl-1H-indol-3-yl)propyl]amino}-4,5,6,7-tetrahydroimidazo[4,5,1-jk][1]benzazepin-2(1H)-one]
- EC50 [1]: 0.0058 µM
- EC50 [2]: 0.008 µM

Compound: CC(CCc1cn(C)c2ccccc12)N[C@@H]1CCn2c(=O)[nH]c3cccc(c32)[C@H]1O (mixture of isomers) [Example 14c, 7-Hydroxy-6-{[1-methyl-3-(1-methyl-1H-indol-3-yl)propyl]amino}-4,5,6,7-tetrahydroimidazo[4,5,1-jk][1]benzazepin-2(1H)-one]
- EC50 [1]: 0.0042 µM
- EC50 [2]: 0.0055 µM

Compound: CC(CCc1c[nH]c2ccc(OCc3ccccc3)cc12)N[C@@H]1CCn2c(=O)[nH]c3cccc(c32)[C@H]1O (mixture of isomers) [Example 17, 6-({3-[5-(Benzyloxy)-1H-indol-3-yl]-1-methylpropyl}amino)-7-hydroxy-4,5,6,7-tetrahydroimidazo[4,5,1-jk][1]benzazepin-2(1H)-one]
- EC50 [1]: 0.033 µM
- EC50 [2]: 0.025 µM

Compound: CC(CCc1cn(Cc2ccccc2)c2ccccc12)N[C@@H]1CCn2c(=O)[nH]c3cccc(c32)[C@H]1O (mixture of isomers) [Example 18, 6-{[3-(1-Benzyl-1H-indol-3-yl)-1-methylpropyl]amino}-7-hydroxy-4,5,6,7-tetrahydroimidazo[4,5,1-jk][1]benzazepin-2(1H)-one]
- EC50 [1]: 0.098 µM
- EC50 [2]: 0.218 µM

Compound: CC(CC(C)(C)c1cn(C)c2ccccc12)N[C@@H]1CCn2c(=O)[nH]c3cccc(c32)[C@H]1O (mixture of isomers) [Example 20, 6-{[1,3-Dimethyl-3-(1-methyl-1H-indol-3-yl)butyl]amino}-7-hydroxy-4,5,6,7-tetrahydroimidazo[4,5,1-jk][1]benzazepin-2(1H)-one]
- EC50 [1]: 0.036 µM
- EC50 [2]: 0.157 µM

Compound: COc1ccc2[nH]cc(CCC(C)N[C@@H]3CCn4c(=O)[nH]c5cccc(c54)[C@H]3O)c2c1 (mixture of isomers) [Example 22, 7-hydroxy-6-{[3-(5-methoxy-1H-indol-3-yl)-1-methylpropyl]amino}-4,5,6,7-tetrahydroimidazo[4,5,1-jk][1]benzazepin-2(1H)-one]
- EC50 [1]: 0.053 µM
- EC50 [2]: 0.05 µM

Compound: CC(CCc1nccs1)N[C@@H]1CCn2c(=O)[nH]c3cccc(c32)[C@H]1O (mixture of isomers) [Example 24b, 7-Hydroxy-6-{[1-methyl-3-(1,3-thiazol-2-yl)propyl]amino}-4,5,6,7-tetrahydroimidazo[4,5,1-jk][1]benzazepin-2(1H)-one]
- EC50 [1]: 0.079 µM
- EC50 [2]: 0.092 µM

Compound: CC(CCc1cnc(Cl)s1)N[C@@H]1CCn2c(=O)[nH]c3cccc(c32)[C@H]1O (mixture of isomers) [Example 25, 6-{[3-(2-Chloro-1,3-thiazol-5-yl)-1-methylpropyl]amino}-7-hydroxy-4,5,6,7-tetrahydroimidazo[4,5,1-jk][1]benzazepin-2(1H)-one]
- EC50 [1]: 0.0042 µM
- EC50 [2]: 0.0029 µM

Compound: CC(CCc1cscn1)N[C@@H]1CCn2c(=O)[nH]c3cccc(c32)[C@H]1O (mixture of isomers) [Example 26, 7-Hydroxy-6-{[1-methyl-3-(1,3-thiazol-4-yl)propyl]amino}-4,5,6,7-tetrahydroimidazo[4,5,1-jk][1]benzazepin-2(1H)-one]
- EC50 [1]: 0.742 µM
- EC50 [2]: 0.345 µM

Compound: CC(CCc1ccncc1)N[C@@H]1CCn2c(=O)[nH]c3cccc(c32)[C@H]1O (mixture of isomers) [Example 27, 7-Hydroxy-6-[(1-methyl-3-pyridin-4-ylpropyl)amino]-4,5,6,7-tetrahydroimidazo[4,5,1-jk][1]benzazepin-2(1H)-one]
- EC50 [1]: 0.053 µM
- EC50 [2]: 0.077 µM

Compound: Cc1ncc(CCC(C)N[C@@H]2CCn3c(=O)[nH]c4cccc(c43)[C@H]2O)s1 (mixture of isomers) [Example 28a, 7-Hydroxy-6-{[1-methyl-3-(2-methyl-1,3-thiazol-5-yl)propyl]amino}-4,5,6,7-tetrahydroimidazo[4,5,1-jk][1]benzazepin-2(1H)-one]
- EC50 [1]: 0.104 µM
- EC50 [2]: 0.129 µM

Compound: CC(CCc1c[nH]c2ccc(C#N)cc12)N[C@@H]1CCn2c(=O)[nH]c3cccc(c32)[C@H]1O (mixture of isomers) [Example 29, 3-(3-{[7-Hydroxy-2-oxo-1,2,4,5,6,7-hexahydroimidazo[4,5,1-jk][1]benzazepin-6-yl]amino}butyl)-1H-indole-5-carbonitrile]
- EC50 [1]: 0.127 µM
- EC50 [2]: 0.083 µM

Compound: CC(CCn1ccnc1)N[C@@H]1CCn2c(=O)[nH]c3cccc(c32)[C@H]1O (mixture of isomers) [Example 30, 7-Hydroxy-6-{[3-(1H-imidazol-1-yl)-1-methylpropyl]amino}-4,5,6,7-tetrahydroimidazo[4,5,1-jk][1]benzazepin-2(1H)-one]
- EC50 [1]: 0.0038 µM
- EC50 [2]: 0.048 µM

Compound: CC(CCc1c[nH]c2ccncc12)N[C@@H]1CCn2c(=O)[nH]c3cccc(c32)[C@H]1O (mixture of isomers) [Example 31c, 7-Hydroxy-6-{[1-methyl-3-(1H-pyrrolo[3,2-c]pyridin-3-yl)-propyl]amino}-4,5,6,7-tetrahydroimidazo[4,5,1-jk][1]benzazepin-2(1H)-one]
- EC50 [1]: 0.019 µM
- EC50 [2]: 0.366 µM

Compound: CC(CCc1c[nH]c2cnccc12)N[C@@H]1CCn2c(=O)[nH]c3cccc(c32)[C@H]1O (mixture of isomers) [Example 32c, 7-Hydroxy-6-{[1-methyl-3-(1H-pyrrolo[2,3-c]pyridin-3-yl)propyl]amino}-4,5,6,7-tetrahydroimidazo[4,5,1-jk][1]benzazepin-2(1H)-one]
- EC50 [1]: 0.0087 µM
- EC50 [2]: 0.018 µM

Compound: Cc1ccc2[nH]cc(CCC(C)N[C@@H]3CCn4c(=O)[nH]c5cccc(c54)[C@H]3O)c2c1 (mixture of isomers) [Example 33, 7-Hydroxy-6-{[1-methyl-3-(5-methyl-1H-indol-3-yl)propyl]amino}-4,5,6,7-tetrahydroimidazo[4,5,1-jk][1]benzazepin-2(1H)-one]
- EC50 [1]: 0.024 µM
- EC50 [2]: 0.074 µM

Compound: Cc1ncsc1CCC(C)N[C@@H]1CCn2c(=O)[nH]c3cccc(c32)[C@H]1O (mixture of isomers) [Example 34a, 7-Hydroxy-6-{[1-methyl-3-(4-methyl-1,3-thiazol-5-yl)propyl]amino}-4,5,6,7-tetrahydroimidazo[4,5,1-jk][1]benzazepin-2(1H)-one]
- EC50 [1]: 0.045 µM
- EC50 [2]: 0.023 µM

Compound: CC(CCc1cc(Cl)cc2cc[nH]c12)N[C@@H]1CCn2c(=O)[nH]c3cccc(c32)[C@H]1O (mixture of isomers) [Example 35, 6-{[3-(5-Chloro-1H-indol-7-yl)-1-methylpropyl]amino}-7-hydroxy-4,5,6,7-tetrahydroimidazo[4,5,1-jk][1]benzazepin-2(1H)-one]
- EC50 [1]: 0.002 µM
- EC50 [2]: 0.0008 µM

Compound: CC(CCc1cccc2cc[nH]c12)N[C@@H]1CCn2c(=O)[nH]c3cccc(c32)[C@H]1O (mixture of isomers) [Example 38d, 7-Hydroxy-6-{[3-(1H-indol-7-yl)-1-methylpropyl]amino}-4,5,6,7-tetrahydroimidazo[4,5,1-jk][1]benzazepin-2(1H)-one]
- EC50 [1]: 0.0011 µM
- EC50 [2]: 0.0006 µM

Compound: CC(CCc1ncccc1O)N[C@@H]1CCn2c(=O)[nH]c3cccc(c32)[C@H]1O (mixture of isomers) [Example 39, 7-Hydroxy-6-{[3-(3-hydroxypyridin-2-yl)-1-methylpropyl]amino}-4,5,6,7-tetrahydroimidazo[4,5,1-jk][1]benzazepin-2(1H)-one]
- EC50 [1]: 0.159 µM
- EC50 [2]: 0.33 µM

Compound: O=c1[nH]c2cccc3c2n1CC[C@@H](NCCc1c[nH]c2ccccc12)[C@@H]3O (racemic) [Example 40a]
- EC50 [1]: 0.02 µM
- EC50 [2]: 0.459 µM

Compound: O=c1[nH]c2cccc3c2n1CC[C@@H](NCCc1c[nH]c2ccccc12)[C@@H]3O (racemic) [Example 40b]
- EC50 [1]: 0.028 µM
- EC50 [2]: 0.55 µM

Compound: CCOC(=O)c1[nH]c2cc(Cl)ccc2c1CCN[C@@H]1CCn2c(=O)[nH]c3cccc(c32)[C@H]1O (racemic) [Example 41, Ethyl-6-chloro-3-(2-{[7-hydroxy-2-oxo-1,2,4,5,6,7-hexahydroimidazo[4,5,1-jk][1]benzazepin-6-yl]amino}ethyl)-1H-indole-2-carboxylate]
- EC50 [1]: 0.026 µM
- EC50 [2]: 0.546 µM
